Literature values, collected in the CATMoS acute toxicity set (Mansouri et al. 2021).

Experiment: rat acute oral toxicity
Details: in vivo
In the case of `CN1CC(O)N(c2nnc(C(C)(C)C)s2)C1=O` (stereo not given), the LD50 is listed as 1540 mg/kg. In the case of `CC(=O)CNC(C)(C)Cc1ccccc1`, the LD50 is given as 225 mg/kg. In the case of `Cc1ncc(CSSCc2cnc(C)c(O)c2C)c(C)c1O`, the LD50 is given as 2150 mg/kg. For `O=NN1CC=CCO1`, the LD50 is given as 900 mg/kg. In the case of `CC(C)=CC1C(C(=O)OC2CC(=O)C(C3C=CCC3)=C2C)C1(C)C` (stereo not given), the LD50 is given as 1410 mg/kg. For `C[N+]1(CCN(C2CCCCC2)C2CCCCC2)CCCCC1`, the LD50 is listed as 650 mg/kg. For `Cc1ccc(C(=O)c2ccc(CC(=O)NCCn3cnc4c3c(=O)n(C)c(=O)n4C)n2C)cc1`, the LD50 is listed as 1200 mg/kg. For `CCOC(C1=NCC(C)(C)CN1)c1cccc(F)c1` (stereo not given), the LD50 is given as 750 mg/kg. In the case of `CCOCCOCCOC(C)=O`, the LD50 is given as 11000 mg/kg. For `NC(N)=Nc1nc(CSCCC(N)=NS(N)(=O)=O)cs1`, the LD50 is listed as 4050 mg/kg. For `O=C(NCCc1ccc(O)cc1)c1cccnc1`, the LD50 is given as 8500 mg/kg. For `CCCC1C2C=CC(C2)C1C=O` (stereo not given), the LD50 is listed as 4600 mg/kg. For `CN(C)c1ccc(N=Nc2cccc(C(=O)O)c2)cc1`, the LD50 is listed as 3760 mg/kg. For `CCOC(=O)N(C)SN(C)C(=O)O/N=C(\C)SC`, the LD50 is listed as 226 mg/kg. For `CC[N+](CC)(CC(=O)Nc1c(C)cccc1C)Cc1ccccc1`, the LD50 is given as 584 mg/kg. In the case of `C1CCc2nnnn2CC1`, the LD50 is listed as 140 mg/kg. For `COC(=O)c1c(Cl)c(Cl)c(C(=O)OC)c(Cl)c1Cl`, the LD50 is listed as 3000 mg/kg. For `CCOc1ccc([N+](=O)[O-])cc1`, the LD50 is given as 3300 mg/kg. In the case of `CC(C)=CCC(CCN1CCCCC1)(C(N)=O)c1cccc2ccccc12` (stereo not given), the LD50 is listed as 57 mg/kg. For `CCOC(=S)C=Cc1ccc2c(c1)OCO2`, the LD50 is given as 940 mg/kg. In the case of `CCN(Cc1ccc(Cl)nc1)/C(=C/[N+](=O)[O-])NC`, the LD50 is listed as 1580 mg/kg. For `CN(C)P(=O)(N(C)C)N(C)C`, the LD50 is given as 2650 mg/kg. For `Nc1ccc(S(=O)(=O)c2ccc(N)cc2)cc1`, the LD50 is listed as 1000 mg/kg. In the case of `CCN(CC)C(=S)N/N=C/c1ccc([N+](=O)[O-])o1`, the LD50 is listed as 750 mg/kg. For `CO[C@H]1C[C@H](O[C@H]2[C@H](C)[C@@H](O[C@@H]3O[C@H](C)C[C@H](N(C)C)[C@H]3O)[C@@H](C)C[C@]3(CO3)C(=O)[C@H](C)[C@@H](O)[C@@H](C)[C@@H](C)OC(=O)[C@@H]2C)O[C@@H](C)[C@@H]1O`, the LD50 is listed as 6700 mg/kg. In the case of `CC(=O)OC1CCC(N2CCCCC2)CC1` (stereo not given), the LD50 is listed as 1950 mg/kg. In the case of `C=CC(C)(CCC=C(C)C)OC(=O)C=Cc1ccccc1` (stereo not given), the LD50 is given as 9960 mg/kg. For `Clc1ccc(C(Cn2ccnc2)OCc2c(Cl)cccc2Cl)c(Cl)c1` (stereo not given), the LD50 is listed as 5600 mg/kg. For `CCN(C)CCC(CC=C(C)C)(C(N)=O)c1cccc2ccccc12` (stereo not given), the LD50 is listed as 71 mg/kg. For `CCOC(=O)C(C#N)C(=O)Cc1c(C)n(C(=O)c2ccc(Cl)cc2)c2ccc(OC)cc12` (stereo not given), the LD50 is listed as 82 mg/kg. In the case of `CCSCc1ccccc1OC(=O)NC`, the LD50 is given as 200 mg/kg. In the case of `CCNC(=O)/C=C/c1cccc(Br)c1`, the LD50 is listed as 4440 mg/kg. In the case of `CNC(C)CC1CCCCC1` (stereo not given), the LD50 is listed as 83 mg/kg. For `CCN1CN(CO)C(=O)N(CO)C1`, the LD50 is listed as 8220 mg/kg. For `S=C(NC1CCCCC1)NC1CCCCC1`, the LD50 is listed as 500 mg/kg. In the case of `CCOP(=O)(OC=C(SCC)SCC)OCC`, the LD50 is given as 15 mg/kg. For `Cc1cc(C)c(C2C(=O)c3ccccc3C2=O)c(C)c1`, the LD50 is listed as 1000 mg/kg. In the case of `CCCc1cc(C(N)=S)ccn1`, the LD50 is given as 1320 mg/kg. In the case of `COCCc1ccccc1`, the LD50 is listed as 4100 mg/kg. In the case of `CCOc1ccc(NC(=O)CC(C)=O)cc1`, the LD50 is given as 176 mg/kg. In the case of `CCCCN(CCCC)SN(C)C(=O)ON=CC(C)(C)SC`, the LD50 is listed as 12.5 mg/kg. For `COP(=S)(OC)Oc1ccc(S(C)=O)c(C)c1` (stereo not given), the LD50 is given as 125 mg/kg. For `C[N+]12CCC(c3ccccc3)(CC1)C(=O)C2`, the LD50 is given as 1480 mg/kg. In the case of `CC(C)NNC(=O)c1ccncc1`, the LD50 is listed as 365 mg/kg. In the case of `Clc1ccc(N2CCN(C/C=C/c3ccccc3)CC2)nn1`, the LD50 is listed as 483 mg/kg. For `C=CN(C(C)=O)c1ccccc1`, the LD50 is listed as 2460 mg/kg. In the case of `CCCCCCCCCCCCOS(=O)(=O)O`, the LD50 is given as 1300 mg/kg. For `CCCCCC=CCC1CC(=O)OC1=O` (stereo not given), the LD50 is listed as 1100 mg/kg. In the case of `C=C(Cl)C(=O)Nc1ccc(OC)cc1`, the LD50 is listed as 82 mg/kg. In the case of `Cc1cc(Cl)ccc1NC(=S)N(C)C`, the LD50 is given as 2500 mg/kg. In the case of `O=C(O)c1ccccc1C(=O)O`, the LD50 is given as 7900 mg/kg. For `CCCCCCCCCCCCCCCCCCN(C(=O)CC(C(=O)O)S(=O)(=O)O)C(CC(=O)O)C(=O)O` (stereo not given), the LD50 is given as 6500 mg/kg. In the case of `CN(C)[C@@H]1C(O)=C(C(N)=O)C(=O)[C@@]2(O)C(O)=C3C(=O)c4c(O)ccc(Cl)c4[C@@H](O)[C@H]3C[C@@H]12`, the LD50 is listed as 2370 mg/kg. For `CC1(C)NC(=O)NC1=O`, the LD50 is listed as 7800 mg/kg. In the case of `CC(C)C1=CCC(CCOC=O)=CC1`, the LD50 is listed as 3570 mg/kg.
